Activity calls are given as the source filed them. The rule behind the calls is not given here.
Tested on: luminescent cytotoxicity (cell viability) counter-screen
Assay: cytotoxicity of Gli-SUFU antagonist hits, dose response, cytotoxicity control for Gli-SUFU antagonist project, cell-based, luminescence, uHTS hits (AID 651569);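 note: compound exposure lasted overnight before the viability readout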

| Compound | IC50 |
| --- | --- |
| Brc1ccc(-[n+]2c(-c3ccccc3)cc(-c3ccccc3)cc2-c2ccccc2)cc1 | > 20 µM (inactive) |
| CCNc1nc(CN2CCCCC2)nc2scc(-c3ccccc3)c12 | 15.6 µM |
| COc1cc2c(c(OC)c1OC)-c1ccc(N(C)CC(OC)OC)c(=O)cc1[C@@H](NC(C)=O)CC2 | 10.6 µM |
| COc1ccc(NS(=O)(=O)c2ccc(N3CCCCC3)c(N)c2)cc1 | > 20 µM (inactive) |
| CCCOc1ccccc1N/C(=N/c1nc(C)cc(C)n1)NC(=O)COc1ccc(OC)cc1 | > 20 µM (inactive) |
| O=C(Nc1nc(-c2cccs2)cs1)c1cccc(S(=O)(=O)N2CCCCCC2)c1 | > 20 µM (inactive) |
| CCCCCCCNC1=CC(=O)CC(c2ccccc2)C1 (configuration not stated) | 16.5 µM |
| CCC(C)NS(=O)(=O)c1ccc(S(=O)(=O)N2CCCC3(CCCCC3)C2)cc1 (configuration not stated) | > 20 µM (inactive) |
| CC(C)(C)OC(=O)NCCCCCc1cn(CC(=O)NCCCCCCCCCCC(=O)N2CCN(C(=O)OC(C)(C)C)CC2)nn1 | > 20 µM (inactive) |
| CC(C)n1c(-c2ccco2)csc1=Nc1cccnc1 | > 20 µM (inactive) |
| CC(C)Cc1ccc(C(C)C(=O)Nc2cccnc2)cc1 (configuration not stated) | > 20 µM (inactive) |
| COc1cc(C(=O)NC2CCN(C)CC2)ccc1Nc1ncc2c(n1)N(C1CCCCC1)CCC(=O)N2C | 15.7 µM |
| NC(=O)c1c(-c2ccc(Cl)cc2Cl)csc1NC(=O)Cc1ccccc1 | 16.8 µM |
| Cc1nc2ccccc2n1Cc1ccc(Br)cc1 | > 20 µM (inactive) |
| O=c1c2ccccc2nc2n1C(CSCc1cccc(C(F)(F)F)c1)CS2 (configuration not stated) | > 20 µM (inactive) |
| O=c1c2ccccc2sc2c(CO)ccc(NCCN3CCCCC3)c12 | 19.1 µM |
| C[N+]1=C(/C=C/Nc2ccccc2)C(C)(C)c2ccccc21 | > 20 µM (inactive) |
| O=C(N[C@@H]1C/C=C\C[C@@H](CC(=O)N(CCO)Cc2ccccc2)C(=O)N[C@@H](c2ccccc2)COC1=O)OCC1c2ccccc2-c2ccccc21 | > 20 µM (inactive) |
| Nc1ccc(Br)cc1-c1nc2ccccc2[nH]c1=O | > 20 µM (inactive) |
| CCn1c(C)nc2cc(-c3nnc(-c4c(-c5ccccc5)noc4C)o3)ccc21 | > 20 µM (inactive) |
| Cc1ccc(OCCN2CCN(c3ncnc4sc(C)c(C)c34)CC2)cc1 | > 20 µM (inactive) |
| Cc1cc(/C=N/n2cnnc2)c(C)n1-c1ccc(OCc2ccccc2F)cc1 | 16.3 µM |
| COc1ccccc1CCNC(=O)c1cc(-c2ccncc2)nc2ccc(Br)cc12 | > 20 µM (inactive) |

| Compound | IC50 |
| --- | --- |
| COc1ccc(NS(=O)(=O)c2ccc(N3CCOCC3)c(N)c2)cc1 | > 20 µM (inactive) |
| CCc1ccccc1NC(=S)N=Nc1c(O)n(C)c2ccc(S(=O)(=O)N3CCOCC3)cc12 | > 20 µM (inactive) |
| CC(C)(C)OC(=O)N1CCC(c2cc(-c3cccs3)n[nH]2)CC1 | > 20 µM (inactive) |
| CCCc1nc(SCC(=O)Nc2nnc(CC)s2)c2c(=O)n(C)c(=O)n(C)c2n1 | > 20 µM (inactive) |
| Cc1ccc(C(=O)N2CCN3C(=O)c4ccccc4C23c2ccc(Cl)cc2)cc1 (configuration not stated) | > 20 µM (inactive) |
| Cc1ccc(S(=O)(=O)NCCC2=CCCCC2)cc1C(N)=O | > 20 µM (inactive) |
| CCCCn1c(CN(C)Cc2ccccc2)nc2c1c(=O)n(C)c(=O)n2C | > 20 µM (inactive) |
| Cc1cc(Nc2ccc([N+](=O)[O-])cc2)c2ccccc2n1 | > 20 µM (inactive) |
| COc1ccccc1-n1c(-c2ccccc2)c[n+]2c1CCc1ccccc1-2 | > 20 µM (inactive) |
| COc1ccc(CN(C)Cc2nc(Cc3cccc(F)c3)no2)c2cccnc12 | > 20 µM (inactive) |
| COc1ccc(-c2nn(-c3ccccc3)cc2/C=N/NC(=O)c2ccc(Br)o2)cc1 | > 20 µM (inactive) |
| Cc1ccc(OCCOC(=O)c2cc(S(=O)(=O)N3CCCCC3)ccc2N2CCOCC2)cc1 | > 20 µM (inactive) |
| O=C(Nc1ccncc1)c1ccc(-c2ccccc2)cc1 | > 20 µM (inactive) |
| Cc1cc(=O)[nH]c(SCC(=O)/C=C2\N(C)c3ccccc3C2(C)C)n1 | > 20 µM (inactive) |
| CNc1ccccc1C(C)(C)c1cc(-c2cccc(Br)c2)no1 | > 20 µM (inactive) |
| CCCN(CCC)CCNC(=O)c1cc2c(=O)n(C)c3ccccc3c2n1C | > 20 µM (inactive) |
| Cc1cc(C)nc(SCC(=O)Nc2ccc(N3CCOCC3)c(Cl)c2)n1 | > 20 µM (inactive) |
| FC(F)Oc1ccc(-n2cc(-c3ccccc3)[n+]3c2CCCCC3)cc1 | > 20 µM (inactive) |
| CCOC(=O)N1CCN(C(=O)c2cc(COc3ccc4ncccc4c3)on2)CC1 | > 20 µM (inactive) |
| COc1ccccc1NS(=O)(=O)c1cccc(C(=O)NC2CCN(Cc3ccccc3)CC2)c1 | > 20 µM (inactive) |
| COc1ccc(C(=O)C[n+]2cc(-c3ccc(OC)cc3)n3c2CCCC3)cc1 | > 20 µM (inactive) |
| CCOc1ccc2[nH]c3c(N4CCN(C(=O)c5ccco5)CC4)ncnc3c2c1 | > 20 µM (inactive) |
| O=C(C[C@H]1C/C=C\C[C@@H](NC(=O)OCC2c3ccccc3-c3ccccc32)C(=O)O[C@@H](c2ccccc2)CNC1=O)N[C@H](CO)Cc1ccccc1 | > 20 µM (inactive) |

| Compound | IC50 |
| --- | --- |
| CC(C)C[C@H]1CN=C(N(C)C)N1CCCCc1ccccc1 | > 20 µM (inactive) |
| CCc1cc(C(=O)NC2CCCN(Cc3ccccc3F)C2)n(C)n1 (configuration not stated) | > 20 µM (inactive) |
| Clc1ccc(-c2cn(-c3ccccc3)c3[n+]2CCS3)cc1 | > 20 µM (inactive) |
| CNc1nc(NCc2ccccc2)c2ccccc2n1 | > 20 µM (inactive) |
| CCC(C)CCN1C(N(C)C)=NC[C@@H]1CC(C)C (some centres not stated) | > 20 µM (inactive) |
| Cc1cc(/C=C2/SC(=S)N(c3ccc([N+](=O)[O-])cc3)C2=O)c(C)n1-c1cccnc1 | > 20 µM (inactive) |
| COc1cccc(/C=C/c2ccncc2)c1OC | > 20 µM (inactive) |
| CN(C)CCn1c2ccccc2c2nc3ccc([N+](=O)[O-])cc3cc21 | > 20 µM (inactive) |
| O=C(C[C@H]1C/C=C\C[C@H](NC(=O)OCC2c3ccccc3-c3ccccc32)C(=O)OC[C@@H]2CCCN2C1=O)N[C@H](CO)Cc1ccccc1 | > 20 µM (inactive) |
| Brc1ccc(-c2c[n+]3c(n2-c2ccccc2)SCC3)cc1 | > 20 µM (inactive) |
| Cc1nn(Cc2noc(C(=O)NC3CCC(C)CC3)n2)c(C)c1Br (configuration not stated) | > 20 µM (inactive) |
| Cc1cccc(C)c1NC(=S)N(CCN1CCCCCC1)Cc1ccco1 | > 20 µM (inactive) |
| COCCOc1nc2c(c(=O)n(C)c(=O)n2C)n1Cc1cccc(OC)c1 | > 20 µM (inactive) |
| CCCCc1ccc(NC(=O)C(=O)NCCN2CCN(Cc3ccc([N+](=O)[O-])cc3)CC2)cc1 | > 20 µM (inactive) |
| Cc1cccc(CCN2C(N(C)C)=NC[C@@H]2CC(C)C)c1 | 18.2 µM |
| C[n+]1c2n(c3ccccc31)N=C(c1ccc(-c3ccccc3)cc1)CS2 | > 20 µM (inactive) |
| CCN(CC)S(=O)(=O)c1ccc(S(=O)(=O)Nc2c(C)nn(C)c2C)cc1 | > 20 µM (inactive) |
| COc1ccc(-c2c(C#N)c(N)nc3c2CCc2ccccc2-3)cc1OC | 8.1 µM |
| O=C(NCCc1cccc(Cl)c1)c1ccc(OC2CCN(Cc3ccccn3)CC2)cc1 | > 20 µM (inactive) |
| Cc1ccc(NC(=O)COc2ccccc2C(N)=O)cc1S(=O)(=O)N1CCCCCC1 | 19.8 µM |
| O=C(N[C@H]1C/C=C\C[C@@H](CC(=O)N(CCO)Cc2ccccc2)C(=O)N[C@H](Cc2c[nH]c3ccccc23)COC1=O)OCC1c2ccccc2-c2ccccc21 | > 20 µM (inactive) |

Reference: PubChem BioAssay AID651569 (Sanford-Burnham Center for Chemical Genomics, 2012)
